Experimental data from patent US20160015703A1, “NANO- MIC[…] FOR […] OF AN ACTIVE INGREDIENT” (Danmarks Tekniske Universitet, priority 2013, published 2016).

Experiment: in vitro
Settings: human

Compound: CN1CCCC1c1cccnc1 (stereo not shown) [HBSS with nicotine, nicotine]
- Papp: 8.5 ×10⁻⁶ cm/s
